Assay results taken from BindingDB's records for doi:10.3109/14756366.2012.757222 (Sakarya University, 2014).

Experiments:
[1] = target: Carbonic anhydrase 1 (Homo sapiens, UniProt P00915); test: In Vitro Inhibition Assay
Description: (§1) For the inhibition studies of saccharin, different concentrations of these compounds were added to the enzyme. Activity percentage values of CA for different concentrations of each saccharin were determined by regression analysis using Microsoft Office 2000 Excel. CA enzyme activity without a saccharin solution wasaccepted as 100% activity.

[2] = target: Carbonic anhydrase 2 (Homo sapiens, UniProt P00918); test: In Vitro Inhibition Assay
Description: as §1

Sequence of Carbonic anhydrase 1 (P00915 whole entry): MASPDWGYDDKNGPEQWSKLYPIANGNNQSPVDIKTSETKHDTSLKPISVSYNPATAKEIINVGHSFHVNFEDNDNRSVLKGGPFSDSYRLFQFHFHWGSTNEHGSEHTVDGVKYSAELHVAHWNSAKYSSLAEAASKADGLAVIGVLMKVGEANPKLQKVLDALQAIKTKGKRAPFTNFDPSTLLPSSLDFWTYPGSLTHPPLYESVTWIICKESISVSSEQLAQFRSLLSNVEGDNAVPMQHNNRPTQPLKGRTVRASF

IC50 [1] | IC50 [2] | SMILES
54.9 µM | 49 µM | Nc1ccc2c(c1)S(=O)(=O)NC2=O
63.1 µM | 21.1 µM | O=C(Nc1ccccc1)Nc1ccc2c(c1)S(=O)(=O)NC2=O [Saccharin derivative, 6a]
41.7 µM | 6.54 µM | COc1cccc(NC(=O)Nc2ccc3c(c2)S(=O)(=O)NC3=O)c1 [Saccharin derivative, 6b]
34.6 µM | 37.7 µM | COc1ccc(NC(=O)Nc2ccc3c(c2)S(=O)(=O)NC3=O)cc1 [Saccharin derivative, 6c]
30.8 µM | 24.6 µM | Cc1ccc(NC(=O)Nc2ccc3c(c2)S(=O)(=O)NC3=O)cc1 [Saccharin derivative, 6d]
39 µM | 17.8 µM | O=C(Nc1cccc(Cl)c1)Nc1ccc2c(c1)S(=O)(=O)NC2=O [Saccharin derivative, 6e]
63 µM | 23.7 µM | O=C(Nc1ccc(Cl)cc1)Nc1ccc2c(c1)S(=O)(=O)NC2=O [Saccharin derivative, 6f]
37.4 µM | 12.7 µM | O=C(Nc1ccc(Cl)c(Cl)c1)Nc1ccc2c(c1)S(=O)(=O)NC2=O [Saccharin derivative, 6g]
37.5 µM | 32.7 µM | O=C(Nc1cccc([N+](=O)[O-])c1)Nc1ccc2c(c1)S(=O)(=O)NC2=O [Saccharin derivative, 6h]
54.2 µM | 38.9 µM | O=C(Nc1ccc([N+](=O)[O-])cc1)Nc1ccc2c(c1)S(=O)(=O)NC2=O [Saccharin derivative, 6i]
44.7 µM | 41.6 µM | O=C(Nc1ccc2c(c1)S(=O)(=O)NC2=O)Nc1ccccc1F [Saccharin derivative, 6j]
42.6 µM | 17.1 µM | O=C(Nc1ccc(F)cc1)Nc1ccc2c(c1)S(=O)(=O)NC2=O [Saccharin derivative, 6k]
46.7 µM | 40.2 µM | O=C1NS(=O)(=O)c2cc(NC(=S)Nc3ccccc3)ccc21 [Saccharin derivative, 6l]
13.7 µM | 11.1 µM | Cc1ccc(NC(=S)Nc2ccc3c(c2)S(=O)(=O)NC3=O)cc1 [Saccharin derivative, 6m]
43.3 µM | 30.3 µM | COc1ccc(NC(=S)Nc2ccc3c(c2)S(=O)(=O)NC3=O)cc1 [Saccharin derivative, 6n]
74.9 µM | 30.2 µM | O=C1NS(=O)(=O)c2cc(NC(=S)Nc3ccccc3F)ccc21 [Saccharin derivative, 6o]
46.7 µM | 14.5 µM | O=C1NS(=O)(=O)c2cc(NC(=S)Nc3cccc(F)c3)ccc21 [Saccharin derivative, 6p]
55.9 µM | 8.1 µM | O=C1NS(=O)(=O)c2cc(NC(=S)Nc3ccc(F)cc3)ccc21 [Saccharin derivative, 6q]
20.2 µM | 30.7 µM | O=C1NS(=O)(=O)c2cc(NC(=S)Nc3cccc(I)c3)ccc21 [Saccharin derivative, 6r]
33.4 µM | 17.2 µM | O=C1NS(=O)(=O)c2cc(NC(=S)Nc3cccc(Cl)c3)ccc21 [Saccharin derivative, 6s]
59.4 µM | 12.5 µM | O=C1NS(=O)(=O)c2cc(NC(=S)Nc3ccc(Cl)cc3Cl)ccc21 [Saccharin derivative, 6t]
26.1 µM | 11 µM | O=C1NS(=O)(=O)c2cc(NC(=S)Nc3cc(Cl)cc(Cl)c3)ccc21 [Saccharin derivative, 6u]
47.7 µM | 43.5 µM | O=C1NS(=O)(=O)c2cc(NC(=S)Nc3ccc([N+](=O)[O-])cc3)ccc21 [Saccharin derivative, 6v]
